Reference: PMC12494099, “Discovery and Characterization of Novel IKZF1/3 Glue Degraders against Multiple Hematological Cancer Cell Lines” (Oncology Research, 2025)

Key:
Format in all cases: cell-based
[1] = system: control vector NCI-H929 cells; assay: Cell apoptosis assay, control vector cells
Protocol: […] NCI-H929 and MV-4-11 cells were seeded at a density of 1 × 10^6 cells/well in 6-well tissue culture-treated plates. According to the manufacturer’s protocol (Santa Cruz Biotechnology, Inc, Dallas, TX, USA), CRBN CRISPR/Cas9 knockout Plasmid (#sc-412142), CRBN HDR plasmid (#sc-412142-HDR), UltraCruz® Transfection Reagent (#sc-395739) were pre-mixed in Plasmid Transfection Medium (#sc-108062) at a 1:1:2 mass ratio, and cells were transiently transfected in a 37°C, 5% CO2 incubator. After 72 h of infection, the medium was replaced with complete medium containing 3 μg/mL puromycin for 5–7 days. On day 7, GFP-positive cells were sorted as single cells into 96-well plates. Isolated single-cell clones were screened via western blot analysis, using wild-type NCI-H929 or MV-4-11 cells as positive controls.
Cells (NCI-H929 and MV-4-11) were seeded at a density of 1 × 10^6 cells per well into 6-well dishes. […] Apoptosis was assessed using an Annexin V-FITC kit (#ab14085; Abcam, MA, USA) on a FACS Calibur Flow Cytometer (Becton Dickinson, Franklin Lakes, NJ, USA). For cell cycle analysis, cells were fixed in 75% ethanol (−20°C/overnight), washed with PBS (pH = 7.2–7.4, 1×), treated with RNase A (0.2 mg/mL, 37°C/30 min), stained with PI (10 μg/mL), and analyzed on the same instrument. Finally, the samples were analyzed using a FACS Calibur Flow Cytometer.

IKZF3 = biological target: T1, IKZF3 (Homo sapiens, UniProt Q96SW2+Q9UKT9); assay: MS-based quantitative proteomics in NCI-H929 cells; conditions: NCI-H929, 10 μM, 4 h
T1 construct: endogenous in cells; host or cells: NCI-H929
Protocol: (§1) NCI-H929 cells were treated with either 10 μM DMSO or 10 μM MGD-C9 for 4 h. Post-treatment, the cells were washed with PBS (pH = 7.2–7.4, 1×) and then lysed in 8M Urea (UA) (comprising 8M urea, 100 mM Tris-HCl, pH = 8.0). Subsequently, the cell lysate was subjected to centrifugation on a high-speed freezing microcentrifuge (#CF1524R; SCILOGEX, Meriden, CT, USA) at […], and the supernatant was collected. Subsequently, the collected supernatant was treated with 10 mM tris (2-carboxyethyl) phosphine hydrochloride (TCEP) to reduce it for 30 min. Following this, cysteine alkylation was performed using 50 mM 2-chloroacetamide (CAA) for an additional 30 min. The denatured proteins were then digested with trypsin (1 μg/μL) at an enzyme-to-protein ratio of 1:50 and incubated at 37°C overnight. The reaction was stopped by adding 0.1% formic acid (FA). The samples were desalted using 100 μL pipette tips packed with C18 discs (3M, Saint Paul, MN, USA). Prior to sample loading, the tips were conditioned sequentially with 80 μL of acetonitrile (ACN), followed by 80 μL of a 1:1 (v/v) mixture of H2O and ACN, and finally with 80 μL of H2O. The conditioned tips were loaded with peptides. Then, they were washed twice with 80 μL of H2O. After that, the peptides were eluted twice using 80 μL of a solution composed of 50% water and 50% acetonitrile (ACN). The resulting eluates were vacuum-dried and then reconstituted in 0.1% formic acid for the subsequent LC-MS/MS analysis.
(§2) The peptide mixtures were analyzed using an EASY-nLC 1200 liquid chromatography system (Thermo Fisher Scientific, WLM, MA, USA) equipped with a custom-made 15 cm C18 column (150 μm ID, 1.9 μm particle size, 100 Å pore size). Peptide separation was performed over a 75-min gradient at a constant flow rate of 600 nL/min. The gradient profile was as follows: 4%–7% buffer B (1 min), 7%–13% buffer B (6 min), 13%–25% buffer B (38 min), 25%–45% buffer B (22 min), 45%–95% buffer B (1 min), followed 95% buffer B (7-min). The buffers used were Buffer A (0.1% formic acid) and Buffer B (0.1% formic acid in 80% acetonitrile). The peptide mixtures were then analyzed using a Q Exactive HF mass spectrometer (Thermo Fisher Scientific). MS data were acquired in data-dependent acquisition (DDA) mode with a dynamic exclusion duration of 15 s. MS1 scans were acquired in positive-ion mode across a mass-to-charge (m/z) range of 300–1400, with a resolution of 120,000 (at m/z 200) and a maximum injection time of 50 ms. Precursor ions were fragmented using higher-energy collision dissociation (HCD) at 27% normalized collision energy. MS2 spectra were collected with an AGC target of 5.0 × 10^4 and a maximum injection time of 20 ms.
(§3) Label-free MS raw data were processed using MaxQuant (v2.4) against the UniProt Human database (https://www.uniprot.org/, downloaded May 2024; 20,434 entries). A strict false discovery rate (FDR) threshold of ≤0.01 was applied at the spectra, protein, and modification levels. Contaminants and reverse database hits were excluded. Default settings were used for all other parameters. Protein groups output by MaxQuant were further analyzed in R (v4.2.1). Student’s t-test, and p-values < 0.01 were considered statistically significant for statistical analyses and a volcano plot was generated with GraphPad Prism 8.0.

CK1α = biological target: T2, CK1α (Homo sapiens, UniProt P48729); assay: MS-based quantitative proteomics in NCI-H929 cells; conditions: NCI-H929, 10 μM, 4 h; not notably downregulated
T2 construct: endogenous in cells; host or cells: NCI-H929
Protocol: as §1, §2, §3

IKZF4 = biological target: T3, IKZF4 (Homo sapiens, UniProt Q9H2S9); assay: MS-based quantitative proteomics in NCI-H929 cells; conditions: NCI-H929, 10 μM, 4 h; not notably downregulated
T3 construct: endogenous in cells; host or cells: NCI-H929
Protocol: as §1, §2, §3

GSPT1 = biological target: T4, GSPT1 (Homo sapiens, UniProt P15170); assay: MS-based quantitative proteomics in NCI-H929 cells; conditions: NCI-H929, 10 μM, 4 h; not notably downregulated
T4 construct: endogenous in cells; host or cells: NCI-H929
Protocol: as §1, §2, §3

PLZF = biological target: T5, PLZF (Homo sapiens, UniProt Q05516); assay: MS-based quantitative proteomics in NCI-H929 cells; conditions: NCI-H929, 10 µM
T5 construct: endogenous in cells; host or cells: NCI-H929
Protocol: as §1, §2, §3

IKZF5 = biological target: T6, IKZF5 (Homo sapiens, UniProt Q9H5V7); assay: MS-based quantitative proteomics in NCI-H929 cells; conditions: NCI-H929, 10 μM, 4 h; not notably downregulated
T6 construct: endogenous in cells; host or cells: NCI-H929
Protocol: as §1, §2, §3

IKZF1 = biological target: T7, IKZF1 (Homo sapiens, UniProt Q13422+Q96SW2); assay: MS-based quantitative proteomics in NCI-H929 cells; conditions: NCI-H929, 10 μM, 4 h
T7 construct: endogenous in cells; host or cells: NCI-H929
Protocol: as §1, §2, §3

SALL4 = biological target: T8, SALL4 (Homo sapiens, UniProt Q9UJQ4); assay: MS-based quantitative proteomics in NCI-H929 cells; conditions: NCI-H929, 10 µM
T8 construct: endogenous in cells; host or cells: NCI-H929
Protocol: as §1, §2, §3

IKZF2 = IKZF2 (Homo sapiens, UniProt Q9UKS7); assay: MS-based quantitative proteomics in NCI-H929 cells; design: endogenous in cells; host or cells: NCI-H929; conditions: NCI-H929, 10 μM, 4 h; not notably downregulated
Protocol: NCI-H929 cells were treated with either 10 μM DMSO or 10 μM MGD-C9 for 4 h. Post-treatment, the cells were washed with PBS (pH = 7.2–7.4, 1×) and then lysed in 8M Urea (UA) (comprising 8M urea, 100 mM Tris-HCl, pH = 8.0). Subsequently, the cell lysate was subjected to centrifugation on a high-speed freezing microcentrifuge (#CF1524R; SCILOGEX, Meriden, CT, USA) at […], and the supernatant was collected. Subsequently, the collected supernatant was treated with 10 mM tris (2-carboxyethyl) phosphine hydrochloride (TCEP) to reduce it for 30 min. Following this, cysteine alkylation was performed using 50 mM 2-chloroacetamide (CAA) for an additional 30 min. The denatured proteins were then digested with trypsin (1 μg/μL) at an enzyme-to-protein ratio of 1:50 and incubated at 37°C overnight. […]
The peptide mixtures were analyzed using an EASY-nLC 1200 liquid chromatography system (Thermo Fisher Scientific, WLM, MA, USA) equipped with a custom-made 15 cm C18 column (150 μm ID, 1.9 μm particle size, 100 Å pore size). […] The peptide mixtures were then analyzed using a Q Exactive HF mass spectrometer (Thermo Fisher Scientific). […]
Label-free MS raw data were processed using MaxQuant (v2.4) against the UniProt Human database (https://www.uniprot.org/, downloaded May 2024; 20,434 entries). […] Protein groups output by MaxQuant were further analyzed in R (v4.2.1). […]

T7 sequence (Q13422 whole entry): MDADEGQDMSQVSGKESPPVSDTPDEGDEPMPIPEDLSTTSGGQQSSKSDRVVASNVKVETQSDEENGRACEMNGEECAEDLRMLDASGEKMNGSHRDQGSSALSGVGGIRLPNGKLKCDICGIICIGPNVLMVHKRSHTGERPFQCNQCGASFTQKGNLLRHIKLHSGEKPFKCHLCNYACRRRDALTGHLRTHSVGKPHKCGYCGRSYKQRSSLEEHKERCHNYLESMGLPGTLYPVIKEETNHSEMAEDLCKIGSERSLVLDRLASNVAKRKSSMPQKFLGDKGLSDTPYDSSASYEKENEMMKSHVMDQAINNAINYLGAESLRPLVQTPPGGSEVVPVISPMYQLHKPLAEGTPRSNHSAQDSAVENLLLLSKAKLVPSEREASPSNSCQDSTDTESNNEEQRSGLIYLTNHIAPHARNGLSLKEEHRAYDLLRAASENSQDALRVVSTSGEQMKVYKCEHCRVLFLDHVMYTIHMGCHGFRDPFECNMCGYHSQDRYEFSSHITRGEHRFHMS
T7 sequence (Q96SW2 whole entry): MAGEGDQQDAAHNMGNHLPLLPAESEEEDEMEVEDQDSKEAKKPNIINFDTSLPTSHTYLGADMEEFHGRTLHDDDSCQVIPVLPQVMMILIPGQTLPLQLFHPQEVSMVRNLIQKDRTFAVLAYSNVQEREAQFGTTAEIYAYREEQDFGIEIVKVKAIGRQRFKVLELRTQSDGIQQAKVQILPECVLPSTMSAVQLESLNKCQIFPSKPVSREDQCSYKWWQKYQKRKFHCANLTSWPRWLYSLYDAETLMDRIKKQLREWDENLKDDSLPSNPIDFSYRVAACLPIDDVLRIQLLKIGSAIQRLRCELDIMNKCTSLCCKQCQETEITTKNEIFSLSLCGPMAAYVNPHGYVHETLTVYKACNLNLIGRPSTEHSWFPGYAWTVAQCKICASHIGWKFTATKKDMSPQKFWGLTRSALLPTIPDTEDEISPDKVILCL
T7 sequence (Q16531 whole entry partner): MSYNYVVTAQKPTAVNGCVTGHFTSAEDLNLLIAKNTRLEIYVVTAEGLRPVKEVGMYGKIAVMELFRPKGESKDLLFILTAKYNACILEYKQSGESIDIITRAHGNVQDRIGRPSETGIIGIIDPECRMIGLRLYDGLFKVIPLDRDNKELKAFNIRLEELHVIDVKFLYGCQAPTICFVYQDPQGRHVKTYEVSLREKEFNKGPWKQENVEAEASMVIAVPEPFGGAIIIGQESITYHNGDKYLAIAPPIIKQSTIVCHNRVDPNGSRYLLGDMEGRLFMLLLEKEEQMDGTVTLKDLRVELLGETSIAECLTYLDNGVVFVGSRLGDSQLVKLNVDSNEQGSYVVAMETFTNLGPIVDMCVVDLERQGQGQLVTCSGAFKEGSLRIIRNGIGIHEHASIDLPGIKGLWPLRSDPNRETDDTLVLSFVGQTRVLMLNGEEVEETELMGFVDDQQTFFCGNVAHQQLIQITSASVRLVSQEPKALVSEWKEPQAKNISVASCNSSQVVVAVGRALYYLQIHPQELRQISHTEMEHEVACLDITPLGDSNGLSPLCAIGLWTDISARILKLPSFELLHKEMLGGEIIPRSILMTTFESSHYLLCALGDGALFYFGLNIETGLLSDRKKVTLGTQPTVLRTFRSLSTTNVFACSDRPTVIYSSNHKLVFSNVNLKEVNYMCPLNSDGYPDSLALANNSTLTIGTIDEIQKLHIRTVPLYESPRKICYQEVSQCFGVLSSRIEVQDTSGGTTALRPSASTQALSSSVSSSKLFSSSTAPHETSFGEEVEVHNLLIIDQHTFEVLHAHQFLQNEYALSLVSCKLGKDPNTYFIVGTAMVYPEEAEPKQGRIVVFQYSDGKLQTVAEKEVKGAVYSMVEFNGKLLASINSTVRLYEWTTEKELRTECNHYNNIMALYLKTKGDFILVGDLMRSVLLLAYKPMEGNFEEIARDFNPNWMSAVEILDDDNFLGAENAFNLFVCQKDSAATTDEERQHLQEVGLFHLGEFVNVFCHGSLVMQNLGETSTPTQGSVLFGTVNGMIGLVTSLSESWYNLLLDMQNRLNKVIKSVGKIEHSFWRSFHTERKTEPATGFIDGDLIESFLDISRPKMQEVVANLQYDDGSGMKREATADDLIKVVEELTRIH
T1 sequence (Q9UKT9 whole entry): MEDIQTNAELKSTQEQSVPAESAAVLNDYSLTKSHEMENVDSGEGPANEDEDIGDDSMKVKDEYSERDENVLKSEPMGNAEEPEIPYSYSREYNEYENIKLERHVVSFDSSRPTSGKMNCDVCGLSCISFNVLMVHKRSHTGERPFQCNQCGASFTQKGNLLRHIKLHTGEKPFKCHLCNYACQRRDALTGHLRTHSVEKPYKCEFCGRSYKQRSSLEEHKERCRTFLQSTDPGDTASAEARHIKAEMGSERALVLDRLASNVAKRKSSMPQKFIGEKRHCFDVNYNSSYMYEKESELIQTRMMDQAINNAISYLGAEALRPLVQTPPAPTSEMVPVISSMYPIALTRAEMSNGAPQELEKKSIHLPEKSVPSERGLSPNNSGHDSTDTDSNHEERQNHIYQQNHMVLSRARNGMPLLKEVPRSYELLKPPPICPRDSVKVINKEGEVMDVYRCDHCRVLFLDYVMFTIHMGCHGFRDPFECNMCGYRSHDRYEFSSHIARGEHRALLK
T1 sequence (Q96SW2 whole entry): as the sequence (Q96SW2 whole entry) above
T1 sequence (Q16531 whole entry partner): as the sequence (Q16531 whole entry partner) above
T3 sequence (Q96SW2 whole entry partner): as the sequence (Q96SW2 whole entry) above
T3 sequence (Q16531 whole entry partner): as the sequence (Q16531 whole entry partner) above
T3 sequence (Q9H2S9 whole entry): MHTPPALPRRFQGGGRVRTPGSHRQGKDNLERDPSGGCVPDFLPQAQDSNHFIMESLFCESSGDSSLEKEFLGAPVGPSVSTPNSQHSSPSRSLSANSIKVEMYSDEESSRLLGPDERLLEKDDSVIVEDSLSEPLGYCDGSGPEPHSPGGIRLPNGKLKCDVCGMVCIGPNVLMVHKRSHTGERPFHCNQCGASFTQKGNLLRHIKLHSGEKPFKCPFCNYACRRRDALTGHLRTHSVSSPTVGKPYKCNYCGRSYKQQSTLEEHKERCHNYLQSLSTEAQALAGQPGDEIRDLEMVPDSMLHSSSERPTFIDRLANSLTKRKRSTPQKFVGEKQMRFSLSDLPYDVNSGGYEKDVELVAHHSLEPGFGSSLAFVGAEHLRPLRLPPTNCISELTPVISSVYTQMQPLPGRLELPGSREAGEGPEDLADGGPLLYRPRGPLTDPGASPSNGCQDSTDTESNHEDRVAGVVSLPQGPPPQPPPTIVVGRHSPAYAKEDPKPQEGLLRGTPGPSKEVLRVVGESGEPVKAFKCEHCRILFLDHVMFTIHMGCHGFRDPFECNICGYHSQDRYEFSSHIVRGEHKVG
T8 sequence (Q96SW2 whole entry partner): as the sequence (Q96SW2 whole entry) above
T8 sequence (Q16531 whole entry partner): as the sequence (Q16531 whole entry partner) above
T8 sequence (Q9UJQ4 whole entry): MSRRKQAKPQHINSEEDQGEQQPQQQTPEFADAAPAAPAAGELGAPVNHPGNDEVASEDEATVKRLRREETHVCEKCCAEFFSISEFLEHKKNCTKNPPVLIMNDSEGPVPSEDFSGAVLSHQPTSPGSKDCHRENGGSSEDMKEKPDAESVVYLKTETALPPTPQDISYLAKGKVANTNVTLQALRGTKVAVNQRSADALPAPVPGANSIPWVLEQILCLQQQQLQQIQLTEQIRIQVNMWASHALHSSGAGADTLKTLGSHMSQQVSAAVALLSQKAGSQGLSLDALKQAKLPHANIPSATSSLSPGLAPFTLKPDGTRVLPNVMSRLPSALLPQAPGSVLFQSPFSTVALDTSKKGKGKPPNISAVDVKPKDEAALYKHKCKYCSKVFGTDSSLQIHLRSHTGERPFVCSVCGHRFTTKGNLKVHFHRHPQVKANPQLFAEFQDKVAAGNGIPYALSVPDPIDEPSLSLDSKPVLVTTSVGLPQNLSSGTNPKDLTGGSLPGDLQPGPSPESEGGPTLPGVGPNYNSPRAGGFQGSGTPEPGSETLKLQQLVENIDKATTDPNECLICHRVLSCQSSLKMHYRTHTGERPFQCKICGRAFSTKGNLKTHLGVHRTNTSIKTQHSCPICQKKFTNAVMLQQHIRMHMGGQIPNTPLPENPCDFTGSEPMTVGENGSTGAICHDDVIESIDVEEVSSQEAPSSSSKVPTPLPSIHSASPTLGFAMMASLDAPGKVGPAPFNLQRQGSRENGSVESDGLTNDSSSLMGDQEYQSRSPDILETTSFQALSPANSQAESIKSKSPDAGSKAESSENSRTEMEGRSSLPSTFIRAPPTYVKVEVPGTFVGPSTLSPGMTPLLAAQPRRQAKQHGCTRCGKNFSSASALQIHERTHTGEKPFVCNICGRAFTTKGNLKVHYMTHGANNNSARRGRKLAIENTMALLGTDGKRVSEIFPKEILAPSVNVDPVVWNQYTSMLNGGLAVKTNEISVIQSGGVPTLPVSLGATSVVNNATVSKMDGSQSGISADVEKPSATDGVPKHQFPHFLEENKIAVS
T6 sequence (Q96SW2 whole entry partner): as the sequence (Q96SW2 whole entry) above
T6 sequence (Q16531 whole entry partner): as the sequence (Q16531 whole entry partner) above
T6 sequence (Q9H5V7 whole entry): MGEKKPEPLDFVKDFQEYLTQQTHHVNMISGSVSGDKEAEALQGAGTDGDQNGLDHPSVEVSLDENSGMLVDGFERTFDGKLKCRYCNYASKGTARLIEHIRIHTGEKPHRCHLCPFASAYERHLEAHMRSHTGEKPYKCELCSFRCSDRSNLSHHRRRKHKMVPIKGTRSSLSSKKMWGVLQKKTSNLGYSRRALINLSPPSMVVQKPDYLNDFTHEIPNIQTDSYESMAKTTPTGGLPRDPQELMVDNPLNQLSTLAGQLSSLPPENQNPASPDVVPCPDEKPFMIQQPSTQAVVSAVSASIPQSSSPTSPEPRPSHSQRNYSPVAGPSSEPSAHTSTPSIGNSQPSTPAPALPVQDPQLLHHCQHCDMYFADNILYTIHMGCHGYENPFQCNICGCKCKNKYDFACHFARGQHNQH

Row | reduction of IKZF3 (proteomics) (IKZF3) [%] | absolute [log2(fold change)] of CK1α (CK1α) | absolute [log2(fold change)] of IKZF4 (IKZF4) | absolute [log2(fold change)] of GSPT1 (GSPT1) | PLZF level (proteomics) (PLZF) | absolute [log2(fold change)] of IKZF5 (IKZF5) | reduction of IKZF1 (proteomics) (IKZF1) | SALL4 level (proteomics) (SALL4) | absolute [log2(fold change)] of IKZF2 (IKZF2) | Compound | apoptosis (in words) [1]
1 | ~80.2 | less than 1 | less than 1 | less than 1 | remained unaffected | less than 1 | approximately 75.1% | remained unaffected | less than 1 | CN1CCN(Cc2cccc(C(=O)NC3CCC(=O)NC3=O)c2F)C(=O)C1 (centres unmarked) [MGD-C9, N-(2,6-dioxopiperidin-3-yl)-2-fluoro-3-((4-methyl-2-oxopiperazin-1-yl)methyl)benzamide] | induced significant apoptosis
2 |  |  |  |  |  |  |  |  |  | CN1CCN(Cc2cccc(C(=O)NC3CCC(=O)NC3=O)c2)CC1 (centres unmarked) [MGD-A7, N-(2,6-dioxopiperidin-3-yl)-3-((4-methylpiperazin-1-yl)methyl)benzamide] | induced significant apoptosis
